In patent publication US12569509B2, “Method and composition for preventing and treating viral infections” (priority 2017, dated 2026):
“And” between values parts separate entries of the source, which are not always exact repeats. Identical values can stand only once.

Tests used:
human PBMC [1] = test: LPS stimulated cytokine secretion in human PBMC pretreated with compounds (Phase 2); assay type: cell-based; settings: LPS alone, 1 ng/mL, 8-hour stimulation; for IL-2 concentration in supernatant: LLOQ = 1.698 pg/mL; for TNF-α concentration in supernatant: LLOQ = 2.018 pg/mL; for IL-1β concentration in supernatant: LLOQ = 2.299 pg/mL; for IFN-g concentration in supernatant: LLOQ = 2.792 pg/mL; for IL-6 concentration in supernatant: LLOQ = 0.831
From the text: Results are represented as fold-change relative to LPS treatment alone for each cytokine calculated by means from 3 separate donors.
RPMI medium alone, RPMI supplemented with 0.2% DMSO (to mimic treatment conditions) or LPS stimulation alone were used as controls.
Except for the two negative control conditions, all 3 donors responded to all experimental conditions tested with the secretion of TNF-α, IL-1β, and IL-6 albeit with a high degree of variability.

human PBMC [2] = test: LPS concentration optimization, cytokine release in human PBMC (Phase 1); assay type: cell-based; settings: for IL-2 Mean Concentration in supernatant / IFN-g Mean Concentration in supernatant: Donors 1-3; for IL-2 Mean Concentration in supernatant: LLOQ = 2.387 pg/mL; for IFN-g Mean Concentration in supernatant: LLOQ = 2.872 pg/mL; for IL-1β Mean Concentration in supernatant / IL-6 Mean Concentration in supernatant / TNF-α Mean Concentration in supernatant: individual Donors 1-3

Q: Lipopolysaccharide [LPS] was tested. Which “IL-2 concentration in supernatant” value (human PBMC [1]; Donor 1) did it give?
A: <LLOQ

Q: What about the “TNF-α concentration in supernatant” value (human PBMC [1]; Donor 1) of the same substance?
A: 1417.82 pg/mL

Q: What about the “IL-1β concentration in supernatant” value (human PBMC [1]; Donor 1) of the same substance?
A: 2362.87 pg/mL

Q: What about the “IFN-g concentration in supernatant” value (human PBMC [1]; Donor 1) of the same substance?
A: <LLOQ

Q: What about the “IL-6 concentration in supernatant” value (human PBMC [1]; Donor 1) of the same substance?
A: 863.49 pg/mL

Q: And the “IL-2 concentration in supernatant” value (human PBMC [1]; Donor 2)?
A: <LLOQ

Q: And the “TNF-α concentration in supernatant” value (human PBMC [1]; Donor 2)?
A: 1375.72 pg/mL

Q: What about the “IL-1β concentration in supernatant” value (human PBMC [1]; Donor 2) of the same substance?
A: 2485.92 pg/mL

Q: And the “IFN-g concentration in supernatant” value (human PBMC [1]; Donor 2)?
A: <LLOQ

Q: And the “IL-6 concentration in supernatant” value (human PBMC [1]; Donor 2)?
A: 760.26 pg/mL

Q: What about the “IL-2 concentration in supernatant” value (human PBMC [1]; Donor 3) of the same substance?
A: <LLOQ

Q: What about the “TNF-α concentration in supernatant” value (human PBMC [1]; Donor 3) of the same substance?
A: 4449.11 pg/mL

Q: What about the “IL-1β concentration in supernatant” value (human PBMC [1]; Donor 3) of the same substance?
A: 3881.34 pg/mL

Q: And the “IFN-g concentration in supernatant” value (human PBMC [1]; Donor 3)?
A: <LLOQ

Q: And the “IL-6 concentration in supernatant” value (human PBMC [1]; Donor 3)?
A: 760.26 pg/mL

Q: What about the “Secretion of IL-1b, IL-6 and TNF-α” value (human PBMC [2]; 1 ng/mL LPS, after 8 hours) of the same substance?
A: robust secretion

Q: What about the “Secretion of IL-2 or IFN-g” value (human PBMC [2]; 1 ng/mL LPS, after 8 hours) of the same substance?
A: No secretion

Q: And the “IL-2 Mean Concentration in supernatant” value (human PBMC [2]; LPS 1 ng/mL, 8-hour)?
A: <LLOQ

Q: And the “IFN-g Mean Concentration in supernatant” value (human PBMC [2]; LPS 1 ng/mL, 8-hour)?
A: <LLOQ

Q: What about the “IL-1β Mean Concentration in supernatant” value (human PBMC [2]; LPS 1 ng/mL, 8-hour) of the same substance?
A: 403.43 pg/mL and 575.75 pg/mL and 1756.56 pg/mL (2×)

Q: What about the “IL-6 Mean Concentration in supernatant” value (human PBMC [2]; LPS 1 ng/mL, 8-hour) of the same substance?
A: 64.83 pg/mL and 659.3 pg/mL and 1103.64 pg/mL (2×)

Q: What about the “TNF-α Mean Concentration in supernatant” value (human PBMC [2]; LPS 1 ng/mL, 8-hour) of the same substance?
A: 670.9 pg/mL and 817.83 pg/mL and 1149.23 pg/mL (2×)

Q: What about the “IL-2 Mean Concentration in supernatant” value (human PBMC [2]; LPS 1 ng/mL, 24-hour) of the same substance?
A: <LLOQ

Q: And the “IFN-g Mean Concentration in supernatant” value (human PBMC [2]; LPS 1 ng/mL, 24-hour)?
A: <LLOQ

Q: What about the “IL-1β Mean Concentration in supernatant” value (human PBMC [2]; LPS 1 ng/mL, 24-hour) of the same substance?
A: 923.42 pg/mL and 1164.43 pg/mL and 2396.79 pg/mL

Q: What about the “IL-6 Mean Concentration in supernatant” value (human PBMC [2]; LPS 1 ng/mL, 24-hour) of the same substance?
A: 1284.85 pg/mL and 1269.72 pg/mL and 1897.32 pg/mL

Q: And the “TNF-α Mean Concentration in supernatant” value (human PBMC [2]; LPS 1 ng/mL, 24-hour)?
A: 1768.29 pg/mL and 2299.94 pg/mL and 2108.58 pg/mL

Q: What about the “IL-2 Mean Concentration in supernatant” value (human PBMC [2]; LPS 10 ng/mL, 8-hour) of the same substance?
A: <LLOQ

Q: What about the “IFN-g Mean Concentration in supernatant” value (human PBMC [2]; LPS 10 ng/mL, 8-hour) of the same substance?
A: <LLOQ

Q: What about the “IL-1β Mean Concentration in supernatant” value (human PBMC [2]; LPS 10 ng/mL, 8-hour) of the same substance?
A: 404.91 pg/mL and 879.72 pg/mL and 1768.06 pg/mL

Q: And the “IL-6 Mean Concentration in supernatant” value (human PBMC [2]; LPS 10 ng/mL, 8-hour)?
A: 192.2 pg/mL and 830.13 pg/mL and 1084.03 pg/mL

Q: What about the “TNF-α Mean Concentration in supernatant” value (human PBMC [2]; LPS 10 ng/mL, 8-hour) of the same substance?
A: 912.13 pg/mL and 955.81 pg/mL and 1113.95 pg/mL

Q: And the “IL-2 Mean Concentration in supernatant” value (human PBMC [2]; LPS 10 ng/mL, 24-hour)?
A: <LLOQ

Q: And the “IFN-g Mean Concentration in supernatant” value (human PBMC [2]; LPS 10 ng/mL, 24-hour)?
A: <LLOQ

Q: What about the “IL-1β Mean Concentration in supernatant” value (human PBMC [2]; LPS 10 ng/mL, 24-hour) of the same substance?
A: 986.68 pg/mL and 1038.39 pg/mL and 2391.98 pg/mL

Q: What about the “IL-6 Mean Concentration in supernatant” value (human PBMC [2]; LPS 10 ng/mL, 24-hour) of the same substance?
A: 1393.01 pg/mL and 1167.49 pg/mL and 2016.76 pg/mL

Q: What about the “TNF-α Mean Concentration in supernatant” value (human PBMC [2]; LPS 10 ng/mL, 24-hour) of the same substance?
A: 2316.87 pg/mL and 1605.58 pg/mL and 2139.91 pg/mL

Q: And the “IL-2 Mean Concentration in supernatant” value (human PBMC [2]; LPS 50 ng/mL, 8-hour)?
A: <LLOQ

Q: What about the “IFN-g Mean Concentration in supernatant” value (human PBMC [2]; LPS 50 ng/mL, 8-hour) of the same substance?
A: <LLOQ

Q: What about the “IL-1β Mean Concentration in supernatant” value (human PBMC [2]; LPS 50 ng/mL, 8-hour) of the same substance?
A: 327.69 pg/mL and 1002.11 pg/mL and 1751.4 pg/mL

Q: What about the “IL-6 Mean Concentration in supernatant” value (human PBMC [2]; LPS 50 ng/mL, 8-hour) of the same substance?
A: 75.24 pg/mL and 880.71 pg/mL and 1096.09 pg/mL

Q: And the “TNF-α Mean Concentration in supernatant” value (human PBMC [2]; LPS 50 ng/mL, 8-hour)?
A: 511.42 pg/mL and 1143.84 pg/mL and 1051.41 pg/mL

Q: What about the “IL-2 Mean Concentration in supernatant” value (human PBMC [2]; LPS 50 ng/mL, 24-hour) of the same substance?
A: <LLOQ

Q: What about the “IFN-g Mean Concentration in supernatant” value (human PBMC [2]; LPS 50 ng/mL, 24-hour) of the same substance?
A: <LLOQ

Q: What about the “IL-1β Mean Concentration in supernatant” value (human PBMC [2]; LPS 50 ng/mL, 24-hour) of the same substance?
A: 899.92 pg/mL and 1170.32 pg/mL and 2216.54 pg/mL

Q: And the “IL-6 Mean Concentration in supernatant” value (human PBMC [2]; LPS 50 ng/mL, 24-hour)?
A: 1317.99 pg/mL and 1333.24 pg/mL and 1966.58 pg/mL

Q: What about the “TNF-α Mean Concentration in supernatant” value (human PBMC [2]; LPS 50 ng/mL, 24-hour) of the same substance?
A: 1680.24 pg/mL and 1378.24 pg/mL and 1954.44 pg/mL

Q: What about the “IL-2 Mean Concentration in supernatant” value (human PBMC [2]; LPS 100 ng/mL, 8-hour) of the same substance?
A: <LLOQ

Q: And the “IFN-g Mean Concentration in supernatant” value (human PBMC [2]; LPS 100 ng/mL, 8-hour)?
A: <LLOQ

Q: And the “IL-1β Mean Concentration in supernatant” value (human PBMC [2]; LPS 100 ng/mL, 8-hour)?
A: 298.82 pg/mL and 873.62 pg/mL and 1222.41 pg/mL

Q: What about the “IL-6 Mean Concentration in supernatant” value (human PBMC [2]; LPS 100 ng/mL, 8-hour) of the same substance?
A: 37.62 pg/mL and 820.5 pg/mL and 817.27 pg/mL

Q: And the “TNF-α Mean Concentration in supernatant” value (human PBMC [2]; LPS 100 ng/mL, 8-hour)?
A: 386.41 pg/mL and 1313.93 pg/mL and 868.83 pg/mL

Q: What about the “IL-2 Mean Concentration in supernatant” value (human PBMC [2]; LPS 100 ng/mL, 24-hour) of the same substance?
A: <LLOQ

Q: What about the “IFN-g Mean Concentration in supernatant” value (human PBMC [2]; LPS 100 ng/mL, 24-hour) of the same substance?
A: <LLOQ

Q: What about the “IL-1β Mean Concentration in supernatant” value (human PBMC [2]; LPS 100 ng/mL, 24-hour) of the same substance?
A: 913.95 pg/mL and 1182.07 pg/mL and 2282.4 pg/mL

Q: And the “IL-6 Mean Concentration in supernatant” value (human PBMC [2]; LPS 100 ng/mL, 24-hour)?
A: 1390.38 pg/mL and 1243.06 pg/mL and 2083.25 pg/mL

Q: And the “TNF-α Mean Concentration in supernatant” value (human PBMC [2]; LPS 100 ng/mL, 24-hour)?
A: 1792.89 pg/mL and 1332.65 pg/mL and 2343.08 pg/mL

Q: What about the “IL-2 Mean Concentration in supernatant” value (human PBMC [2]; LPS 1000 ng/mL, 8-hour) of the same substance?
A: <LLOQ

Q: What about the “IFN-g Mean Concentration in supernatant” value (human PBMC [2]; LPS 1000 ng/mL, 8-hour) of the same substance?
A: <LLOQ

Q: What about the “IL-1β Mean Concentration in supernatant” value (human PBMC [2]; LPS 1000 ng/mL, 8-hour) of the same substance?
A: 1008.83 pg/mL and 1979.93 pg/mL and 441.01 pg/mL

Q: What about the “IL-6 Mean Concentration in supernatant” value (human PBMC [2]; LPS 1000 ng/mL, 8-hour) of the same substance?
A: 895.76 pg/mL and 1251.62 pg/mL and 166.25 pg/mL

Q: What about the “TNF-α Mean Concentration in supernatant” value (human PBMC [2]; LPS 1000 ng/mL, 8-hour) of the same substance?
A: 1276.06 pg/mL and 1481.27 pg/mL and 498.68 pg/mL

Q: What about the “IFN-g Mean Concentration in supernatant” value (human PBMC [2]; LPS 1000 ng/mL, 24-hour) of the same substance?
A: <LLOQ

Q: What about the “IL-1β Mean Concentration in supernatant” value (human PBMC [2]; LPS 1000 ng/mL, 24-hour) of the same substance?
A: 1145.77 pg/mL and 2192.5 pg/mL and 799.96 pg/mL

Q: What about the “IL-6 Mean Concentration in supernatant” value (human PBMC [2]; LPS 1000 ng/mL, 24-hour) of the same substance?
A: 1519.68 pg/mL and 2426.8 pg/mL and 1363.37 pg/mL

Q: And the “TNF-α Mean Concentration in supernatant” value (human PBMC [2]; LPS 1000 ng/mL, 24-hour)?
A: 2286.74 pg/mL and 3069.72 pg/mL and 1675.83 pg/mL

Q: And the “Production of TNF-α, IL-1β, and IL-6” value (human PBMC [2]; LPS ≥1 ng/mL, 8 and 24 hours, all donors)?
A: robust production
